Experimental findings from US20090061022A1, “Pharmaceutical composition comprising arsenite for the treatment of malignancy” (priority 2004, published 2009) are described below.

The data set has as its system ALL-SCID 4. Briefly: Anticancer activity in human leukemia model ALL-SCID 4. The note with it: 100 mg/kg i.p., day 25. The text has this: Anticancer activity of the sodium meta-arsenite and arsenic trioxide against two human paediatric acute lymphoblastic leukemia (ALL) models in vivo, ALL-SCID 4 was investigated to compare.
Male NOD/SCID mice (deficient in T and B lymphocytes, NK cells and functional macrophages) were transplanted s.c. on day 0 with fragments of ALL-SCID 4 cancers, which were obtained from mice used for routine passage of the cancers. Mice were randomized to the scheduled treatment groups.
Sodium meta-arsenite was administered orally at 2, 4 and 6 mg/kg/day (⅓ MTD, ⅔ MTD and MTD) once every day from day 34-54 after transplantation. The vehicle control (5% glucose in water) was administered i.p. (10 ml/kg).
Sodium meta-arsenite was dissolved in ready-to-use sterile infusion (5% (w/v) glucose in aqua injectabila). Arsenic trioxide was dissolved in 25 mM NaOH then dissolved in 5% glucose in aqua injectabila. The solutions were prepared freshly on the day of therapy for each administration.

Molecules are shown by their SMILES. Marks after values point to notes of the source that are not given here.

Consider `O=P1(N(CCCl)CCCl)NCCCO1` (stereo not drawn) [Cyclophosphamide, reference compound], for which the “BW loss % (day)” value is listed as “+4 (34) %”, the Drug-related deaths was 0/8 and the T/C % is on record as 4* %.
